Experimental data reported in patent publication EP0290169A2, “Diamineplatinum complexes with phosphonocarboxylate and substituted phosphonocarboxylate ligands as antitumor agents” (ENGELHARD CORPORATION, priority 1987, dated 1988).
“And” between values parts separate entries of the source, which are not always exact repeats. Equal values may be shown once.

Key:
Sarcoma 180 ascites = assay: S180a screening (Sarcoma 180 ascites tumor model), increase in life span; type: in vivo, CFW mice; details: for Surv.: survivors on day of evaluation
Protocol: CFW mice, averaging 20 g, are innoculated on day zero with 0.2 mL of a freshly prepared saline suspension (0.15 M NaCI) containing 1 × 10^7 tumor cells/mL, or a total of 2 x 10^6 cells. On day I, the mice are injected with the test compound in the selected medium (usually water). Six mice are used per test dose, with six doses normally being run.
Also, on day one, two types of controls (6 mice/set are employed: (1) Normal (1 set): 0.5 mL of the solvent medium used for the test compound, and (2) Positive control (1 set): cis-[Pt(NH3)2Cl2] in saline at 8 mg/kg.
The effectiveness of a compound is measured in terms of the increase in life span (ILS) of the test animals relative to the controls calculated from the day of tumor inoculation (day zero). The day of evaluation is arbitrarily taken as that day corresponding to twice the mean life-span of the normal controls. This sets a practical upper limit of 100% on the ILS attainable. For calculation purposes, survivors on the day of evaluation are considered to have died on that day. The % ILS is formulated as: [formula]
ILS values above 50% represent activity. The positive controls must have an ILS of ≧ 50% for the test to be valid.

L1210 leukemia = assay: L1210 screening (L1210 leukemia tumor model), increase in life span; type: in vivo, Female CDF1 mice
Protocol: Female CDF1 mice (16-22 g) are injected with a suspension of 1 x 10^6 tumor cells in 0.5 mL of 0.15 M saline on day zero. On day one, the mice receive the test compound in 0.5 mL of the chosen medium (usually water). Six mice were used for each test dose, with six doses normally being run. Normal controls (six mice) receive tumor on day zero and 0.5 mL of the test medium on day one. Positive controls (six mice) receive tumor on day zero and 8 mg/kg cisplatin in 0.5 mL of 0.15 M saline on day one. All compound doses are adjusted for the actual average weight of the mice involved. Testing is terminated at three times the normal control mean life span. The percent increase in lifespan (ILS) is calculated as follows: %ILS = [(mean life span (test)/mean life span(control)-I]x100 A 25% ILS or greater indicates activity. The maximum possible ILS is 200%. The positive control must have an ILS of S 25% for the test to be considered valid.
The tumor line is maintained by transfer of 5 x 10^4- cells in 0.1 mL saline every seven days. DBA/2 (18-22 g) mice are employed for tumor transfers

[1] = Toxicity testing: BUN (kidney toxicity); type: in vivo, mice; details: for BUN: change vs. controls
Protocol: (§1) (PVA = 2-phosphonovalerate). Based on the screening results, initial dosing was established at approximately twice the peak active dose in the SI80 screen. […] WBC was measured by lysing the red blood cells with 3% acetic acid and counting the white cells using a haemocytometer.
(§2) Data obtained for Na[Pt(trans-R,R-dach)(PVA)] was taken at 240 mg/kg. […] Average cage weights for the test mice were also taken over the seven day test period.

[2] = Toxicity testing: WBC (myelosuppression); type: in vivo, mice; details: for WBC: change vs. controls
Protocol: as §1, §2

[3] = Toxicity testing: hematocrit and average cage weights; type: in vivo, mice; details: 240 mg/kg
Protocol: (PVA = 2-phosphonovalerate). Based on the screening results, initial dosing was established at approximately twice the peak active dose in the SI80 screen. Both a cisplatin control, also run at twice the peak active dose, and a negative control experiment, were run for comparative purposes. BUN was measured by using a kit manufactured by Harleco (No. 64667). WBC was measured by lysing the red blood cells with 3% acetic acid and counting the white cells using a haemocytometer.
Data obtained for Na[Pt(trans-R,R-dach)(PVA)] was taken at 240 mg/kg. […] Myelosuppresion however, was apparent. The WBC depression for this compound was 63% relative to controls. […] Average cage weights for the test mice were also taken over the seven day test period. The mice lost an average of 5.9 g (27.3%) of body weight over this time.

[4] = dose 40.00 mg/kg on day 1, vehicle water
[5] = dose 80.00 mg/kg on day 1, vehicle water
[6] = dose 160.00 mg/kg on day 1, vehicle water
[7] = dose 10.00 mg/kg on day 1, vehicle water
[8] = dose 10.00 mg/kg on day 1, vehicle water, survivors
[9] = dose 20.00 mg/kg on day 1, vehicle water
[10] = dose 20.00 mg/kg on day 1, vehicle water, survivors
[11] = dose 40.00 mg/kg on day 1, vehicle water, survivors
[12] = dose 80.00 mg/kg on day 1, vehicle water, survivors
[13] = dose 160.00 mg/kg on day 1, vehicle water, survivors
[14] = dose 320.00 mg/kg on day 1, vehicle water
[15] = dose 320.00 mg/kg on day 1, vehicle water, survivors

Row | Compound | %ILS (Sarcoma 180 ascites; [4]) [%] | Surv. (Sarcoma 180 ascites; [4]) | %ILS (Sarcoma 180 ascites; [5]) [%] | Surv. (Sarcoma 180 ascites; [5]) | %ILS (Sarcoma 180 ascites; [6]) [%] | Surv. (Sarcoma 180 ascites; [6]) | %ILS (L1210 leukemia; [7]) [%] | Surv. (L1210 leukemia; [8]) | %ILS (L1210 leukemia; [9]) [%] | Surv. (L1210 leukemia; [10]) | %ILS (L1210 leukemia; [4]) [%] | Surv. (L1210 leukemia; [11]) | %ILS (L1210 leukemia; [5]) [%] | Surv. (L1210 leukemia; [12]) | %ILS (L1210 leukemia; [6]) [%] | Surv. (L1210 leukemia; [13]) | %ILS (L1210 leukemia; [14]) [%] | Surv. (L1210 leukemia; [15]) | %ILS (Sarcoma 180 ascites; [7]) [%] | Surv. (Sarcoma 180 ascites; [7]) | also measured
1 | CCCC1C(=O)[O][Pt][O]P1(=O)[O-].NC1CCCCC1N.[Na+] (mixture of isomers) [Ex 18, Na[Pt(trans-R,R-dach)(2-phosphonovaierate)]] | 77 | 1/ 6 | 92 | 5/ 6 | 44 | 1/ 6 | 36 | 0/ 6 | 25 | 0/ 6 | 33 | 0/ 6 | 33 | 0/ 6 | 109 | 0/ 6 | 24 | 1/ 6 | – | – | BUN decrease vs. controls ([1]; 240 mg/kg): 4%; average BUN level ([1]; 240 mg/kg, test mice): 34.7 mg/dL; BUN ([1]; dose 240 mg/kg): -4%; kidney toxicity ([1]; judged from BUN elevation): not kidney toxic at this dose; WBC depression relative to controls ([2]; 240 mg/kg): 63%; WBC ([2]; dose 240 mg/kg): -63%; hematocrits (ratio of packed red blood cells to volume of whole blood) [3]: low hematocrits
2 | CCC(C)(C(=O)[O-])P(=O)([O-])[O-].N[C@@H]1CCCC[C@H]1N.[Na+].[Pt+2] (relative stereo) [Ex 22, Na[Pt(trans-R,R-dach)(2-methyl-2-phosphonobutyrate)]] | 82 | 4/ 6 | 100 | 6/ 6 | 86 | 2/ 6 | 45 | 0/ 6 | 35 | 0/ 6 | 70 | 1/ 6 | 94 | 1/ 6 | 114 | 3/ 6 | -39 | 0/ 6 | 28 | 1/ 6 | %ILS (Sarcoma 180 ascites; [9]): 20%; Surv. (Sarcoma 180 ascites; [9]): 0/ 6; %ILS (Sarcoma 180 ascites; [14]): -78%; Surv. (Sarcoma 180 ascites; [14]): 0/ 6
3 | N[C@@H]1CCCC[C@H]1N.O=C1[O][Pt][O]P1(=O)[O-].[Na+] [Ex 20, Na[Pt(trans-R,R-dach)(phosphonoformate)]] | 7 | 0/ 6 | 18 | 0/ 6 | 59 | 0/ 6 | -17 | 0/ 6 | -20 | 0/ 6 | -14 | 0/ 6 | -7 | 0/ 6 | 11 | 0/ 6 | 20 | 0/ 6 | 6 | 0/ 6 | %ILS (Sarcoma 180 ascites; [9]): -5%; Surv. (Sarcoma 180 ascites; [9]): 0/ 6; %ILS (Sarcoma 180 ascites; [14]): 55%; Surv. (Sarcoma 180 ascites; [14]): 0/ 6
4 | Na[Pt(trans-R, R-dach)(2-phosphono-1,7-heptanedicarboxylate)] [Ex 23] | 45 | 2/ 6 | 86 | 4/ 6 | 34 | 4/ 6 | 59 | 0/ 6 | 67 | 0/ 6 | 88 | 0/ 6 | 133 | 3/ 6 | 161 | 3/ 6 | -32 | 0/ 6 | 20 | 0/ 6 | %ILS (Sarcoma 180 ascites; [9]): 31%; Surv. (Sarcoma 180 ascites; [9]): 0/ 6; %ILS (Sarcoma 180 ascites; [14]): -37%; Surv. (Sarcoma 180 ascites; [14]): 1/ 6
5 | cis-[Pt(NH3)2Cl2] [Cisplatin, reference compound] | – | – | – | – | – | – | – | – | – | – | – | – | – | – | – | – | – | – | – | – | POS. CONT. %ILS (Sarcoma 180 ascites; positive control of the same test: cis-[Pt(NH3)2Cl2] in saline at 8 mg/kg on day 1, listed as POS. CONT., 8 mg/kg): 89% and 85% and 70% and 55% and 94% and 74% and 86% and 68%; POS. CONT. Surv. (Sarcoma 180 ascites; positive control of the same test: cis-[Pt(NH3)2Cl2] in saline at 8 mg/kg on day 1, survivors, listed as POS. CONT., 8 mg/kg): 4/ 6 and 3/ 6 and 2/ 6 and 1/ 6; POS. CONT. Surv. (L1210 leukemia; positive control of the same test: 8 mg/kg cisplatin in 0.15 M saline on day 1, survivors, listed as POS. CONT.): 0/ 6 and 1/ 6 and 3/ 6 and 2/ 6; BUN ([1]; dose 15 mg/kg): +98%; WBC ([2]; dose 15 mg/kg): -7%
